From PMC4890880 (ACS infectious diseases, 2016)
Where two headings read alike, the source gives them in different places.

Legend:
[1] = test system: Plasmodium berghei (Pb-Luc) exoerythrocytic-stage parasites; assay: microbe, parasite or virus in culture
[2] = test system: HepG2-A16-CD81EGFP cells; assay: cells; conditions: Homo sapiens, HepG2, read-out: % inhibition
[3] = test system: HepG2-A16-CD81EGFP cells; conditions: human, 50 uM
[4] = read-out: Inhibition% @ 50 uM rep1
[5] = read-out: Inhibition% @ 50 uM rep2

| Structure (SMILES) | inhibition at 50 µM [1, 4] [%] | inhibition at 50 µM [1, 5] [%] | inhibition at 50 µM [2] [%] | HepG2 Tox% @ 50 uM rep1 [3] [%] | HepG2 Tox% @ 50 uM rep2 [3] [%] |
| --- | --- | --- | --- | --- | --- |
| CCC(=O)Nc1nnc(Cc2ccc(OC)c(OC)c2)s1 [MMV020942] | -19 | -37 | -25.5 | -26 | – |
| CN(C)c1ccc(N=Cc2ccc(N3CCOCC3)cc2)cc1 [MMV073843] | 88 | 83 | -8.32 | -8 | – |
| CCOc1ccc(-n2cc(-c3ccccc3)c3c(SCc4cc(C)ccc4C)ncnc32)cc1 [MMV085471] | 11 | -7 | -12.2 | -12 | – |
| O=C(NC1CCN(Cc2ccccc2)CC1)c1cc2nc(-c3ccc(Cl)s3)cc(C(F)(F)F)n2n1 [MMV396635] | 7.6 | 24 | -29.6 | -30 | – |
| CC1(c2ccccc2)Nc2ccccc2-c2nc3ccccc3n21 (stereo not drawn) [MMV396715] | 104 | 106 | 98.6 | – | 102 |
| Oc1c(C(Nc2ccccn2)c2cccc(Oc3ccccc3)c2)ccc2cccnc12 (stereo not drawn) [MMV665814] | -33 | -6 | -17.3 | -17 | – |
| CCC(c1ccccc1)c1nn2c(-c3cccs3)nnc2s1 (stereo not drawn) [MMV665876] | 99 | 103 | 93.6 | – | 96 |
| O=C(Nc1cccc(-c2nc3ccccc3[nH]2)c1)c1cccc(NC(=O)c2ccco2)c1 [MMV665883] | 101 | 102 | 97.2 | – | 99 |
| O=C(Nc1ccccc1O)c1ccc(Oc2cccc(C(=O)Nc3ccccc3O)c2)cc1 [MMV665888] | 102 | 104 | 98.7 | – | 100 |
| COc1ccc(N2CCN(C(CNC(=O)CC(C)(C)C)c3ccc4c(c3)OCO4)CC2)cc1 (stereo not drawn) [MMV665908] | 61 | 66 | -9.68 | -10 | – |
| CCC(C)NCC(O)(c1ccc(Cl)cc1)c1ccc(Cl)cc1 (stereo not drawn) [MMV665928] | 104 | 106 | 99.2 | – | 102 |
| O=C(NCC1Cc2cccc(-c3ccncc3)c2O1)c1csc2c1CCCC2 (stereo not drawn) [MMV665954] | 100 | 102 | 95.9 | – | 98 |
| CCOC(=O)C1=C(C)N=c2sc(=Cc3cc(Cl)ccc3O)c(=O)n2C1c1ccc(OC)cc1 (stereo not drawn) [MMV665971] | 103 | 104 | 99.7 | 100 | – |
| COc1ccc(-c2cc3c(nn2)-c2ccccc2C3=O)cc1 [MMV666026] | 61 | 71 | 21.5 | 21 | – |
| COCCNC(=O)c1ccc(OC2CCN(Cc3ccc(F)c(F)c3)CC2)c(Cl)c1 [MMV666072] | 100 | 102 | 90.7 | – | 97 |
| CCOC(=O)C1=C(C)N=c2sc(=Cc3ccccc3O)c(=O)n2C1c1ccc(OC)c2ccccc12 (stereo not drawn) [MMV666604] | 53 | 33 | -7.73 | -8 | – |
| CCCCCCc1cc2cc(-c3csc(C=Cc4ccccc4)n3)c(=O)oc2cc1O [MMV666692] | 104 | 104 | 99.5 | – | – |
| CCOc1ccc(N2C(N)=NC(N)=NC2(C)C)cc1 [MMV667486] | 21 | 22 | -13.4 | -13 | – |
| CN(C)c1ccc(N2C(N)=NC(N)=NC2(C)C)cc1 [MMV667487] | 71 | 82 | -8.72 | -9 | – |
| COC(=O)c1ccc(Cl)c2c1C1C=CCC1C(c1cccc3ccccc13)N2 (stereo not drawn) [MMV667489] | 97 | 99 | 61.4 | – | – |
